These results are taken from ChEMBL document CHEMBL5729320, “Indoleamine-2,3-dioxygenase inhibitor, the preparative method and the use thereof” (2022).

This assay concerns the target Indoleamine 2,3-dioxygenase 1 (Homo sapiens, UniProt P14902). Put plainly: Inhibitory Activity Assay: The tested compounds and the reference compounds are dissolved in DMSO to prepare a high concentration of storage solution. The stock solution of reference compound was diluted with DMSO to prepare a 100× solution. In the first column of the working plate, 8 μL above tested compounds and 8 μL 100× reference compound were respectively added as the highest concentration, and then the highest concentrations were subjected to three times dilution to obtain 11 concentrations and prepare 100× solution. 0.5 μL solution was transferred from the above plate to the detection plate. To each well was added 0.5 μL 100× compound solution. For HPE and ZPE control wells, 0.5 μL 100% DMSO was added.25 μL 2×IDO1 (His-tag) enzyme solution (containing L-ascorbic acid, methylene blue, and catalase) was added to each well. 25 μL reaction solution without IDO1 (His-tag) enzyme was added into HPE control well. The test plate was centrifugated at 1000 rpm for 1 minute to mix well. Then, the test plate was incubated at room temperature for 30 minutes. 25 μL above 2× substrate (L-tryptophan) solution was added to each well. The test plate was centrifugated at 1000 rpm for 1 minute to mix well. The detection plate was placed on ELISA (SpectraMax M5e), the temperature was set at 25° C., and the absorbance (OD value) was measured at 320 nm every 10 minutes till 60 minutes. (An ELISA detects its analyte on a solid surface through an enzyme-linked reagent.)

Chain of Indoleamine 2,3-dioxygenase 1 (P14902 whole entry): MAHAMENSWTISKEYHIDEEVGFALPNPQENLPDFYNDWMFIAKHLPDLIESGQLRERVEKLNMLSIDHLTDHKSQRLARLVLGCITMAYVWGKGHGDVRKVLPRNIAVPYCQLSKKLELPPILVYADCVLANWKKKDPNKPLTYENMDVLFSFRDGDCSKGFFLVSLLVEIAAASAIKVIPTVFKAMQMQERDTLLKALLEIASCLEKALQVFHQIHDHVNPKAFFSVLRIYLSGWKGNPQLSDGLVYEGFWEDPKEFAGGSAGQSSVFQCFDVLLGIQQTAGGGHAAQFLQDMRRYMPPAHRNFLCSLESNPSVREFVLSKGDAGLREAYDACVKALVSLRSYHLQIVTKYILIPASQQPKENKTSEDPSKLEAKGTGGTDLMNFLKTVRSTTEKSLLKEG

Take `NS(=O)(=O)N1CCC(CSc2nonc2C(=NO)Nc2ccc(F)c(Br)c2)C1` (stereo unspecified): the 50% inhibitory concentration (IC50) (usually the midpoint of a concentration-inhibition curve) was 107 nM.
